Data as given in patent publication US11655225B2, “Antimycobacterial heterocyclic amides” (Crestone, Inc., priority 2018, dated 2023).
≈ marks a conversion by molar mass, not a printed value.

Tested on: isoniazid-, rifampin-, and fluoroquinolone-resistant M. tuberculosis
Experiment: microbe, parasite or virus in culture
Type: cell-based
Conditions: for MIC: Mycobacterium tuberculosis; for activity against resistant strains: isoniazid-, rifampin-, and fluoroquinolone-resistant M. tuberculosis

Row | Structure (SMILES) | MIC [µg/mL] | activity against resistant strains
1 | CC12CCCC(C(=O)Nc3nc4cc(Cl)cc(Cl)c4s3)(CCC1)C2 [Example 2, N-(5,7-dichloro-1,3-benzothiazol-2-yl)-5-methylbicyclo[3.3.1]nonane-1-carboxamide] | 0.03 to 4 (≈ 0.0783 to 10.4 µM) | active
2 | CC12CCCC(C(=O)Nc3nc4ccc(OC(F)(F)F)cc4s3)(CCC1)C2 [Example 5, 5-methyl-N-[6-(trifluoromethoxy)-1,3-benzothiazol-2-yl]bicyclo[3.3.1]nonane-1-carboxamide] | 0.03 to 4 (≈ 0.0753 to 10 µM) | active
3 | CC12CC3CC(C)(C1)CC(C(=O)Nc1nc4ccc(OC(F)(F)F)cc4s1)(C3)C2 [Example 45, 3,5-dimethyl-N-[6-(trifluoromethoxy)-1,3-benzothiazol-2-yl]adamantane-1-carboxamide] | 0.03 to 4 (≈ 0.0707 to 9.42 µM) | active
4 | CC1CC(C(=O)Nc2nc3ccc(OC(F)(F)F)cc3s2)CC(C)(C)C1 (stereo not shown) [Example 46, 3,3,5-trimethyl-N-[6-(trifluoromethoxy)-1,3-benzothiazol-2-yl]cyclohexane-1-carboxamide] | 0.03 to 4 (≈ 0.0776 to 10.4 µM) | active
5 | CC1CC(C(=O)Nc2nc3c(F)cc(F)cc3s2)CC(C)(C)C1 (stereo not shown) [Example 80, N-(4,6-difluoro-1,3-benzothiazol-2-yl)-3,3,5-trimethylcyclohexane-1-carboxamide] | 0.03 to 4 (≈ 0.0886 to 11.8 µM) | active
